In PubChem BioAssay (NCI):
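Five compound concentrations were applied to cells in 96-well plates for 48 hours; endpoints were derived by simple linear interpolation of the resulting dose-response curve. TGI is the concentration that stops growth completely.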

What was measured:
Assay in all cases: NCI-60 cell line screen, 48 h
[1] = test system: BT-549 breast
[2] = test system: RXF 393 renal
[3] = test system: MDA-MB-231 breast
[4] = test system: OVCAR-4 ovarian
[5] = test system: NCI-H23 lung
[6] = test system: TK-10 renal
[7] = test system: MCF7 breast
[8] = test system: HL-60(TB) leukemia
[9] = test system: M14 melanoma
[10] = test system: ACHN renal
[11] = test system: SK-OV-3 ovarian
[12] = test system: SN12C renal
[13] = test system: SF-295 CNS
[14] = test system: CAKI-1 renal
[15] = test system: UACC-62 melanoma
[16] = test system: HOP-62 NSCLC
[17] = test system: 786-0 renal
[18] = test system: EKVX NSCLC
[19] = test system: HCC-2998 colon
[20] = test system: NCI-H460 lung
[21] = test system: COLO 205 colon
[22] = test system: SR leukemia
[23] = test system: SW-620 colon
[24] = test system: SNB-19 CNS
[25] = test system: OVCAR-5 ovarian
[26] = test system: RPMI-8226 leukemia
[27] = test system: SF-539 CNS
[28] = test system: SK-MEL-2 melanoma
[29] = test system: HOP-92 NSCLC
[30] = test system: MOLT-4 leukemia
[31] = test system: HCT-116 colon
[32] = test system: A498 renal
[33] = test system: NCI/ADR-RES ovarian
[34] = test system: OVCAR-3 ovarian
[35] = test system: NCI-H226 lung
[36] = test system: NCI-H522 lung
[37] = test system: T-47D breast
[38] = test system: PC-3 prostate
[39] = test system: HT29 colon
[40] = test system: K-562 leukemia
[41] = test system: A549 NSCLC
[42] = test system: MDA-N
[43] = test system: HCT-15 colon
[44] = test system: U251 CNS
[45] = test system: UO-31 renal
[46] = test system: KM12 colon
[47] = test system: UACC-257 melanoma
[48] = test system: SK-MEL-28 melanoma
[49] = test system: OVCAR-8 ovarian
[50] = test system: DU-145 prostate
[51] = test system: IGROV1 ovarian
[52] = test system: MDA-MB-435
[53] = test system: SNB-75 CNS
[54] = test system: CCRF-CEM leukemia
[55] = test system: MALME-3M melanoma
[56] = test system: SK-MEL-5 melanoma
[57] = test system: LOX IMVI melanoma
[58] = test system: HS 578T breast
[59] = test system: SF-268 CNS

Question: How did the TGI [1] turn out when `COc1ccc(NC(C)=O)cc1N1C(=O)/C(=C\c2cccc(Oc3ccccc3)c2)S(=O)(=O)C1c1ccccc1` (centres undefined) was run?
Answer: Its TGI is > 100 µM.

Question: And the TGI [2]?
Answer: The TGI was > 100 µM.

Question: And the TGI [3]?
Answer: The TGI was > 100 µM.

Question: What about the TGI [4] of the same compound?
Answer: The TGI was > 100 µM.

Question: And the TGI [5]?
Answer: The TGI was > 100 µM.

Question: And the TGI [6]?
Answer: The TGI was > 100 µM.

Question: And the TGI [7]?
Answer: Its TGI is > 100 µM.

Question: And the TGI [8]?
Answer: Its TGI is 40.5 µM.

Question: And the TGI [9]?
Answer: Its TGI is > 100 µM.

Question: And the TGI [10]?
Answer: Its TGI is > 100 µM.

Question: And the TGI [11]?
Answer: Its TGI is > 100 µM.

Question: What about the TGI [12] of the same compound?
Answer: Its TGI is 73 µM.

Question: What about the TGI [13] of the same compound?
Answer: The TGI was > 100 µM.

Question: And the TGI [14]?
Answer: Its TGI is 44.8 µM.

Question: What about the TGI [15] of the same compound?
Answer: The TGI was > 100 µM.

Question: What about the TGI [16] of the same compound?
Answer: The TGI was > 100 µM.

Question: What about the TGI [17] of the same compound?
Answer: Its TGI is > 100 µM.

Question: What about the TGI [18] of the same compound?
Answer: The TGI was > 100 µM.

Question: What about the TGI [19] of the same compound?
Answer: The TGI was > 100 µM.

Question: What about the TGI [20] of the same compound?
Answer: Its TGI is > 100 µM.

Question: And the TGI [21]?
Answer: Its TGI is > 100 µM.

Question: And the TGI [22]?
Answer: Its TGI is 23.9 µM.

Question: And the TGI [23]?
Answer: Its TGI is > 100 µM.

Question: And the TGI [24]?
Answer: The TGI was > 100 µM.

Question: What about the TGI [25] of the same compound?
Answer: Its TGI is > 100 µM.

Question: And the TGI [26]?
Answer: Its TGI is 73.6 µM.

Question: And the TGI [27]?
Answer: Its TGI is 74.6 µM.

Question: What about the TGI [28] of the same compound?
Answer: Its TGI is > 100 µM.

Question: And the TGI [29]?
Answer: The TGI was > 100 µM.

Question: And the TGI [30]?
Answer: The TGI was 59 µM.

Question: What about the TGI [31] of the same compound?
Answer: The TGI was 31.3 µM.

Question: And the TGI [32]?
Answer: The TGI was > 100 µM.

Question: And the TGI [33]?
Answer: Its TGI is > 100 µM.

Question: And the TGI [34]?
Answer: Its TGI is > 100 µM.

Question: And the TGI [35]?
Answer: Its TGI is > 100 µM.

Question: And the TGI [36]?
Answer: Its TGI is > 100 µM.

Question: And the TGI [37]?
Answer: Its TGI is > 100 µM.

Question: What about the TGI [38] of the same compound?
Answer: Its TGI is > 100 µM.

Question: And the TGI [39]?
Answer: The TGI was 43.7 µM.

Question: What about the TGI [40] of the same compound?
Answer: The TGI was 68.9 µM.

Question: And the TGI [41]?
Answer: The TGI was > 100 µM.

Question: And the TGI [42]?
Answer: Its TGI is 53.6 µM.

Question: What about the TGI [43] of the same compound?
Answer: Its TGI is > 100 µM.

Question: And the TGI [44]?
Answer: Its TGI is > 100 µM.

Question: And the TGI [45]?
Answer: The TGI was > 100 µM.

Question: And the TGI [46]?
Answer: Its TGI is > 100 µM.

Question: And the TGI [47]?
Answer: The TGI was > 100 µM.

Question: What about the TGI [48] of the same compound?
Answer: The TGI was > 100 µM.

Question: What about the TGI [49] of the same compound?
Answer: The TGI was > 100 µM.

Question: What about the TGI [50] of the same compound?
Answer: The TGI was > 100 µM.

Question: What about the TGI [51] of the same compound?
Answer: The TGI was > 100 µM.

Question: What about the TGI [52] of the same compound?
Answer: Its TGI is > 100 µM.

Question: What about the TGI [53] of the same compound?
Answer: The TGI was > 100 µM.

Question: What about the TGI [54] of the same compound?
Answer: The TGI was 83.8 µM.

Question: What about the TGI [55] of the same compound?
Answer: The TGI was > 100 µM.

Question: And the TGI [56]?
Answer: The TGI was > 100 µM.

Question: And the TGI [57]?
Answer: Its TGI is > 100 µM.

Question: What does the source list for `CC(C)=NNC1=NC(C)(C)P(=O)(NNc2ncccn2)S1` (centres undefined)?
Answer: TGI [1]: > 100 µM; TGI [2]: > 100 µM; TGI [3]: > 100 µM; TGI [4]: > 100 µM; TGI [58]: > 100 µM; TGI [5]: > 100 µM; TGI [6]: > 100 µM; TGI [7]: > 100 µM; TGI [9]: > 100 µM; TGI [10]: > 100 µM; TGI [11]: > 100 µM; TGI [13]: > 100 µM; TGI [14]: > 100 µM; TGI [15]: > 100 µM; TGI [16]: > 100 µM; TGI [17]: > 100 µM; TGI [59]: > 100 µM; TGI [18]: > 100 µM; TGI [19]: > 100 µM; TGI [20]: > 100 µM; TGI [23]: > 100 µM; TGI [24]: > 100 µM; TGI [25]: > 100 µM; TGI [27]: > 100 µM; TGI [28]: > 100 µM; TGI [29]: > 100 µM; TGI [30]: > 100 µM; TGI [31]: > 100 µM; TGI [32]: > 100 µM; TGI [34]: > 100 µM; TGI [36]: > 100 µM; TGI [37]: > 100 µM; TGI [38]: > 100 µM; TGI [39]: > 100 µM; TGI [40]: > 100 µM; TGI [41]: > 100 µM; TGI [42]: > 100 µM; TGI [43]: > 100 µM; TGI [44]: > 100 µM; TGI [45]: > 100 µM; TGI [47]: > 100 µM; TGI [48]: > 100 µM; TGI [49]: > 100 µM; TGI [50]: > 100 µM; TGI [51]: > 100 µM; TGI [52]: > 100 µM; TGI [56]: > 100 µM
